From US20040121965A1, “Method of treating resistant tumors” (Wyeth Holdings Corporation, priority 2002, published 2004)
Read-outs that look alike come from different tables or passages of the source.

Tests used:
tumor cell lines = assay: cells; type: cell-based; conditions: Five micromolar
From the text: (§1) Cells lines with previously known mechanisms of resistance. […] Res. 8: 207-218,1996); KB-3-1 (parental derived from an epidermoid carcinoma), KB-8.5, KB-V1 (Akiyama S-I, Fojo A, Hanover J A, Pastan I, Gottesman M M. Isolation and genetic characterization of human KB cell lines resistant to multiple drugs. Somatic Cell Mol. Gen., 11: 117-126,1985; Shen D-W, Cardarelli C, Hwang J, Cornwell M, Richert N, Ishii S, Pastan I, Gottesman MM. […] J. Biol. Chem., 261: 7762-7770, 1986); and HL-60 (parental derived from human leukemia) and HL60/AR (McGrath T., Center M. S. Adriamycin resistance in HL60 cells in the absence of detectable P-glycoprotein. Biochem. Res. Commun., 145:1171-1176,1987); A549 and A549.EpoB40 (He L., Yang C.-P.H., Horwitz S. B. Mutations in p-tubulin map to domains involved in regulation of microtubule stability in epothilone-resistant cell lines. Molecular Cancer Therapeutics. 1: 3-10, 2001). HCT-15 human colon carcinoma and DLD-1 human colon carcinoma are obtained from American Tissue Culture Collection. The MX-1W carcinoma is a Wyeth variant orginally obtained as MX-1 breast carcinoma from the National Cancer Institute. Cell lines selected for resistance to Representative Example 129. KB-3-1 cells are selected for resistance to Example 129 by chronically exposing cells to increasing concentrations of Example 129.
(§2) 2.2. Cell Survival Assay: Standard Pharmacological Test Procedure. The concentration of candidate inhibitor required to inhibit 50% of cell growth (IC50) is done according to previously reported methods. […] Compounds are serially diluted into media as 2× stocks and 100 μl added to cells in duplicate. Compounds are incubated with cells for 3 days. At the end of the incubation period the sulforhodamine B (SRB) assay, which measures protein content as an assessment of cell survival, is performed as described previously (Skehan P, Storeng R, Scudiero D, Monks A, McMahon J, Vistica D, Warren J T, Bokesch H, Kenney S, Boyd MR. New calorimetric cytotoxicity assay for anticancer-drug screening. J Natl Cancer Inst 1990 Jul 4;82(13):1107-12) with some modification as follows. For KB-3-1 cells with 20% FCS, media is gently decanted and replaced with 200 μl of serum-free media mixed with cold 50% TCA for a final concentration of 10% TCA. The plates are incubated for 1 hr at 4° C., followed by washing 5 times in cold distilled water, then air dried overnight. The fixed cells are stained for 10 min with 80 μl of 0.04% SRB solution prepared in 1% glacial acetic acid. Stain is discarded and plates washed 5 times in 1% glacial acetic acid, then air-dried until completely dry. Stained cell product is dissolved in 150 μl of 10 mM Trizma Base and placed on a shaker for 20 minutes until fully dissolved. Absorbance is read on a Victor V multi-label plate reader (Perkin Elmer, Gaithersburg, Md.).

KB-3-1 = assay: Cell survival assay (SRB), KB-3-1; type: cell-based, human
Procedure, shortened: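 SRB protein stain as survival read-out; IC50 = conc. giving 50% growth inhibition. Compound serially diluted, duplicate wells, 3 d exposure; TCA fixation (10% final, 1 h, 4 °C), 0.04% SRB/1% acetic acid 10 min, solubilised in 10 mM Trizma Base, A read.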

[1] = system: Human Melanoma Carcinoma Lox; conditions: staged LOX xenograft; at MTD ('<': MTD not achieved); days 11-15
Protocol: 2.4. Growth of Tumors in Nude Mice. […] In these experiments, xenografts are implanted subcutaneously into the flanks of nude mice. […] Relative tumor mass compared to controls are assessed during the 21-day post-staging period.
Groups of 5 female nu/nu mice are injected with 1.5×10^6 KB-3-1 (A) or Lox cells (B). […] Relative tumor growth is determined during the experiment and % T/C calculated. Statistical analyses are Student's t-test of treated time points vs. vehicle (*, P<0.05; **, P<0.01)

MX-1W tumor = assay: Growth of tumors in nude mice, MX-1W xenograft; type: in vivo
From the text: 2.4. Growth of Tumors in Nude Mice.

KB-8-5 (MDR1+) [2] = assay: Cell survival assay (SRB), KB-8-5 (MDR1+); conditions: for IC50: Homo sapiens; for RR, relative resistance: IC50 KB-8-5 / IC50 KB-3-1, Table 3
KB-V1 (MDR1++) [3] = assay: Cell survival assay (SRB), KB-V1 (MDR1++); conditions: for IC50: Homo sapiens; for RR, relative resistance: IC50 KB-V1 / IC50 KB-3-1, Table 3
KB-8-5 (MDR1+) [4] = system: KB-8-5 (MDR1+)
KB-V1 (MDR1++) [5] = system: KB-V1 (MDR1++)
KB-PTX-15+099 = assay: Cell survival assay, KB-PTX-15+099 (paclitaxel-resistant, non-MDR); type: cell-based, human; conditions: for IC50: KB-PTX-15+099, Table 6, read-out: KB-PTX-15+099 IC50; for Average Relative Resistance (RR): IC50 KB-PTX-15+099 / IC50 KB-3-1, less than 1 = increased sensitivity
KB-HTI-4.0 = assay: Cell survival assay, KB-3-1 line made resistant to Example 129 (KB-HTI-4.0); type: cell-based, human; conditions: for IC50: KB-3-1 line made resistant to Example 129, Table 8, read-out: KB-HTI-4.0 IC50; for (RR) relative resistance vs. parental cells: KB-HTI-4.0 vs KB-3-1
From the text: as §1, §2
Cells are selected for resistance to Example 129 to understand the frequency and mechanistic basis of resistance.

[6] = Homo sapiens, KB 3-1, 72 h, amount of drug needed to kill 50% of cells after three days continuous exposure, Table 11, read-out: IC50 in parental cell line KB-3-1
[7] = Homo sapiens, KB 3-1, KB-3-1 cells (paclitaxel-sensitive parent), read-out: In vitro IC50 (nM) KB-3-1
[8] = MDR1, read-out: In vitro IC50 (nM) KB85
[9] = read-out: In vitro IC50 (nM) KBV1
[10] = KB-3-1 cells (paclitaxel-sensitive parent), read-out: In vitro IC50 (nM) KB-3-1

COc1ccc(C(C#N)(CCCCCN2CCc3cc(OC)c(OC)cc3C2)Sc2ccc(C)cc2)cc1OC (centres unmarked)
effect on cell growth when given alone (tumor cell lines; KB-3-1, KB-85, KB-V1 (Table 4)): # has no inhibitory effect on cell growth when given alone. Data are the mean of two experiments.
effect on cell growth when given alone (tumor cell lines; MX-1W, DLD-1, HCT-15 (Table 2)): # Five micromolar 7-(6,7-dimethoxy-3,4-dihydro-1H-isoquinolin-2-yl)-2(3,4-dimethoxy-phenyl)-2-p-tolysulfanyl-heptanenitrile has no inhibitory effect on cell growth when given alone.

CN[C@H](C(=O)N[C@H](C(=O)N(C)[C@H](/C=C(\C)C(=O)O)C(C)C)C(C)(C)C)C(C)(C)c1cccc(C)c1 [Example 8, N,β,β,3-Tetramethyl-L-phenylalanyl-N^1-[(1S,2E)-3-carboxy-1-isopropyl-2-butenyl]-N^1,3-dimethyl-L-valinamide]
IC50 (KB-3-1; [6]): 0.3 nM
IC50 (KB-3-1; [7]): 0.274 nM
Activity in nude mice animal model (% T/C @ MTD on days 11-15) LOX [1]: 2%
effect on growth of MX-1W (paclitaxel-resistant) tumor (MX-1W tumor; mouse, in vivo): inhibited the growth
Activity in nude mice animal model (% T/C @ MTD on days 11-15) MX-1W (MX-1W tumor; staged MX-1W xenograft, at MTD, days 11-15): 9%
Ratio KB85/KB (KB-8-5 (MDR1+) [2]): 2.6
IC50 (KB-8-5 (MDR1+) [2]; [8]): 0.699 nM
Ratio KBV1/KB (KB-V1 (MDR1++) [3]): 68.5
IC50 (KB-V1 (MDR1++) [3]; [9]): 18.7 nM

CCOC(=O)/C(C)=C/[C@H](C(C)C)N(C)C(=O)[C@@H](NC(=O)[C@H](NC)C(C)(C)c1ccc(C)c(C)c1)C(C)(C)C [Example 13b, N,β,β-3,4-pentamethyl-D-phenylalanyl-N^1-[(1S,2E)4-ethoxy-1-isopropyl-3-methyl4-oxo-2-butenyl]-N^1,3-dimethyl-L-valinamide]
IC50 (KB-3-1; [10]): 295 nM
IC50 (KB-8-5 (MDR1+) [4]): 1410 nM
IC50 (KB-V1 (MDR1++) [5]): ≥ 3000 nM
Ratio KB85/KB (KB-8-5 (MDR1+) [2]): 4.8
Ratio KBV1/KB (KB-V1 (MDR1++) [3]): 10.2

CN[C@H](C(=O)N[C@H](C(=O)N(C)[C@H](C[C@@H](C)C(=O)O)C(C)C)C(C)(C)C)C(C)(C)c1ccccc1 [Example 124, N,β,β-trimethyl-L-phenylalanyl-N^1-[(1R,3R)-3-carboxy-1-isopropylbutyl]-N^1,3-dimethyl-L-valinamide]
IC50 (KB-3-1; [6]): 8.6 nM
IC50 (KB-3-1; [7]): 8.6 nM
Activity in nude mice animal model (% T/C @ MTD on days 11-15) LOX [1]: 62%
Ratio KB85/KB (KB-8-5 (MDR1+) [2]): 2.2
IC50 (KB-8-5 (MDR1+) [2]; [8]): 18.9 nM
Ratio KBV1/KB (KB-V1 (MDR1++) [3]): 153.0
IC50 (KB-V1 (MDR1++) [3]; [9]): 1320 nM

CCOC(=O)/C(C)=C/[C@H](C(C)C)N(C)C(=O)[C@@H](NC(=O)[C@@H](NC)C(C)(C)c1ccccc1)C(C)(C)C [Example 133, Ethyl (E,4S)4-[((2S)-3,3-dimethyl-2-{[(2S)-3-methyl-2-(methylamino)-3-phenylbutanoyl]amino}butanoyl)(methyl)amino]-2,5-dimethyl-2-hexenoate]
IC50 (KB-3-1; [6]): 34 nM
IC50 (KB-3-1; [7]): 34 nM
Activity in nude mice animal model (% T/C @ MTD on days 11-15) LOX [1]: 1%
Ratio KB85/KB (KB-8-5 (MDR1+) [2]): 14.5
IC50 (KB-8-5 (MDR1+) [2]; [8]): 499 nM
Ratio KBV1/KB (KB-V1 (MDR1++) [3]): 54.5
IC50 (KB-V1 (MDR1++) [3]; [9]): 1870 nM

CC(=O)O[C@@]12CO[C@@H]1C[C@H](O)[C@@]1(C)C(=O)[C@H](O)C3=C(C)[C@@H](OC(=O)[C@H](O)[C@@H](NC(=O)OC(C)(C)C)c4ccccc4)C[C@@](O)([C@@H](OC(=O)c4ccccc4)[C@H]21)C3(C)C [docetaxel, reference compound]
IC50 (KB-3-1; [6]): 0.6 nM
IC50 (KB-3-1; Homo sapiens, KB-3-1, Table 6, read-out: KB-3-1 IC50): 0.594 ± 0.098 nM
IC50 (KB-3-1; Homo sapiens, KB-3-1 parental, Table 3, read-out: KB-3-1 IC50, nM (N)): 0.55 ± 0.45 nM
IC50 (KB-3-1; Homo sapiens, KB-3-1 parental, Table 8, read-out: KB-3-1 IC50): 0.44 ± 0.2 nM
IC50 (KB-PTX-15+099; Homo sapiens): 4.49 ± 1.91 nM
Average Relative Resistance (RR) (KB-PTX-15+099): (7.6)
resistance of KB-PTX-15+099 cells (KB-PTX-15+099; vs KB-3-1): 7.6 fold
IC50 (KB-HTI-4.0; Homo sapiens): 1.25 ± 0.76 nM
(RR) relative resistance vs. parental cells (KB-HTI-4.0): (3)
IC50 (KB-8-5 (MDR1+) [2]; MDR1, read-out: KB-8-5 (MDR1+) IC50, nM (N)): 9.7 ± 6.6 nM
RR, relative resistance (KB-8-5 (MDR1+) [2]): 18
resistance of KB-8-5 cells (KB-8-5 (MDR1+) [2]; KB-8-5 (KB-85) vs KB-3-1, in vitro): 18 fold
IC50 (KB-V1 (MDR1++) [3]; read-out: KB-V1 (MDR1++) IC50, nM (N)): 368 ± 257 nM
RR, relative resistance (KB-V1 (MDR1++) [3]): 669

CC[C@H](C)[C@@H]([C@@H](CC(=O)N1CCC[C@H]1[C@H](OC)[C@@H](C)C(=O)N[C@@H](Cc1ccccc1)c1nccs1)OC)N(C)C(=O)[C@@H](NC(=O)[C@H](C(C)C)N(C)C)C(C)C [dolastatin-10]
IC50 (KB-3-1; KB-3-1, Table 6, read-out: KB-3-1 IC50): 0.041 ± 0.01 nM
IC50 (KB-3-1; KB-3-1 parental, Table 8, read-out: KB-3-1 IC50): 0.03 ± 0.02 nM
Average Relative Resistance (RR) (KB-PTX-15+099): (0.30)
IC50 (KB-PTX-15+099): 0.012 ± 0.004 nM
increased sensitivity of KB-PTX-15+099 cells (KB-PTX-15+099; vs KB-3-1): 3.4 fold
IC50 (KB-HTI-4.0): 0.83 ± 0.33 nM
(RR) relative resistance vs. parental cells (KB-HTI-4.0): (28)
RR, relative resistance (KB-8-5 (MDR1+) [2]): 7.1
RR, relative resistance (KB-V1 (MDR1++) [3]): 573

(2E,4S)4-[{(2R)-2-cyclohexyl-2-[(N,β,1-trimethyl-L-phenylalanyl)amino]ethanoyl}(methyl)amino]-2,5-dimethylhex-2-enoic Acid Trifluoroacetic Acid [Example 98]
IC50 (KB-3-1; [10]): 133 nM
IC50 (KB-8-5 (MDR1+) [4]): 186 nM
IC50 (KB-V1 (MDR1++) [5]): 2940 nM

(2E,4S)-2,5-dimethyl4-(methyl{(2S)-2-[(N,β,1-trimethyl-L-phenylalanyl)amino]butanoyl}amino)hex-2-enoic Acid Trifluoroacetic Acid [Example 99]
IC50 (KB-3-1; [10]): 60 nM
IC50 (KB-8-5 (MDR1+) [4]): 87 nM
IC50 (KB-V1 (MDR1++) [5]): 1320 nM

(E,4S)-4-[((2S)-3,3-dimethyl-2-{[(2S)-3-methyl-2-(methylamino)-3-(1-methyl-1H-ethyl-1H-indol-3-yl)butanoyl]amino}butanoyl)amino]-2,5-dimethyl-2-hexenoic Acid [Example 132]
IC50 (KB-3-1; [10]): 0.51 nM
IC50 (KB-V1 (MDR1++) [5]): 890 nM

N,β,β-trimethyl-L-phenylalanyl-N^1-{(1S,2E)-4-[[(1S,2E)-3-carboxy-1-isopropylbut-2-enyl](methyl)amino]-1-isopropyl-3-methyl-4-oxobut-2-enyl-N^1,3-dimethyl-L-valinamide [Example 114]
IC50 (KB-3-1; [10]): 55 nM
IC50 (KB-8-5 (MDR1+) [4]): 192 nM
IC50 (KB-V1 (MDR1++) [5]): > 3000 nM
Ratio KB85/KB (KB-8-5 (MDR1+) [2]): 3.5
